# Experimental data from patent US12030840B2 (GENFIT, priority 2018, dated 2024).
# Substitutions are numbered along the chain they refer to. Where a name gives a salt, the structure may show the parent alone. Read-outs that look alike come from different tables or passages of the source.
# Key:
# [1] = molecular target: T1, PPARgamma (Homo sapiens, UniProt P37231); assay: Gal4-PPAR transactivation assay in COS-7 cells, human PPARgamma; format: cell-based
# T1 sequence (P37231 238-505 limits assumed): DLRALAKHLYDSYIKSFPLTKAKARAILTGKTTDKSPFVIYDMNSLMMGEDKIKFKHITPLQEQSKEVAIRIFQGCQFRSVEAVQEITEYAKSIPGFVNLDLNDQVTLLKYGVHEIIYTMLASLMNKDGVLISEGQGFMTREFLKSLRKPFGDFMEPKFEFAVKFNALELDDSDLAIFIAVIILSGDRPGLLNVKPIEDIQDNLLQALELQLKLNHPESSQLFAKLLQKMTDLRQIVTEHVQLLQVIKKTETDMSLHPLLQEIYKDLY
# Method: (§1) Monkey kidney COS-7 cells were maintained in standard culture conditions (Dulbecco's modified Eagle's minimal medium: DMEM) supplemented with 10% fetal calf serum, 1% sodium pyruvate, 1% essential amino acids, 1% L-glutamine and 1% antibiotics at 37° C. in a humidified atmosphere of 5% CO2 and 95% air. The medium was changed every 2 days. All tested compounds were dissolved in DMSO. Cells were transfected using 4 μl JetPEI™ (Polyplus transfection)/μg of DNA. Briefly, 150 ng of DNA per well was transfected in a 96 well culture plate of adherent COS-7 cells (respecting the 10:1 ratio between the Gal4(RE)_TkpGL3 plasmid and the plasmid coding the nuclear receptor of interest (pGal4-hPPARalpha, pGal4-hPPARgamma, pGal4-hPPARdelta, pGal4-mPPARalpha, pGal4-mPPARgamma and pGal4-mPPARdelta) or of the pGal4phi plasmid (negative control). Cells were enzymatically detached and seeded in 96 well plates at the density of 40,000 cells per well and then incubated for 24 hours at 37° C. The activation was performed in DMEM 0% fetal calf serum, supplemented with the tested compounds (compound of interest or reference molecules) or vehicle (DMSO 0.1%). The luciferase activity was measured with the Steady-Glo Luciferase Assay System (Promega, Madison, WI). All transactivation experiments were performed at least 2 times. Activation curves were realized using Prism® (from GraphPad) software. Prism® was also used to fit the standard curves and then determine the specific EC50 values, maximum effect versus reference molecules and Hill slope. The Emax effect of each new ligand is represented as the ratio of the maximal induction (plateau) obtained with the new ligand and the induction obtained with the corresponding reference compound. The reference compounds for PPARalpha, PPARgamma and PPARdelta were fenofibrate (100 μM), rosiglitazone (10 μM) and GW501516 (1 μM), respectively.
# [2] = physchem; details: for solubility at 24 h: 20 °C, thermodynamic from solid
# Method: The solubility of the compound is determined in buffered aqueous solution at pH 1, pH 3, pH 5 and pH 7.4.
# The saturation is obtained by adding an excess of active ingredient to a given volume of test medium. The suspension is stirred by orbital stirring over 24 hours at […], away from light.
# After 30 min, 1 hour, 2 hours and/or 24 hours, the supernatant is isolated by centrifugation and diluted in a solvent mixture allowing its injection into the chromatographic system. The concentration (expressed as parent concentration) in solution for each medium is determined by HPLC (external standardization).
# After 24 hours an XRPD analysis is performed on the insoluble fraction isolated by centrifugation.
# • pH 1 HCl/KCl buffer: a mixture of 0.373 g of KCl and 13.4 ml of HCl in a 100 mL volumetric flask was completed to 100 mL with de-ionized water. • pH 3 citrate buffer: 1.051 g of citric acid monohydrate was dissolved in 250 ml of de-ionized water. The pH was adjusted to 3 with NaOH. • pH 5 citrate/phosphate buffer: Solution I was prepared: 2.8392 g of Na2HPO4 in 100 mL volumetric flask was completed to 100 mL with de-ionized water. Solution II was prepared: 2.1004 g of citric acid monohydrate in a 100 mL volumetric flask was completed to 100 mL with de-ionized water. To 48.5 mL of Solution II were added 51.5 mL of Solution I. • pH 7.4 phosphate buffer: a mixture of 38 g of Na2HPO4, 12H2O and 3.8 g of Na2HPO4, 2H2O in a 1 L volumetric flask was completed to 1 L with de-ionized water. Salt Screening Macroscopic Observation
# [3] = molecular target: T2, PPARalpha (Homo sapiens, UniProt Q07869); assay: Gal4-PPAR transactivation assay in COS-7 cells, human PPARalpha; format: cell-based
# T2 sequence (Q07869 200-468 limits assumed): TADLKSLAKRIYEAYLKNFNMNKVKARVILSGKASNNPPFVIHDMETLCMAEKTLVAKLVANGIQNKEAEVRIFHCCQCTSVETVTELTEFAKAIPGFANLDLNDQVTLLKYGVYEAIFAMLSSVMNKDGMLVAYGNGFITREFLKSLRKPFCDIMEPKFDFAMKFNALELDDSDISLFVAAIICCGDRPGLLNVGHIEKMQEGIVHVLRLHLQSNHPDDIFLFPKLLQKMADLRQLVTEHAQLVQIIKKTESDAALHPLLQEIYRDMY
# Method: as §1
# [4] = molecular target: T3, PPARgamma (Mus musculus, UniProt P37238); assay: Gal4-PPAR transactivation assay in COS-7 cells, murine PPARgamma; format: cell-based; details: Murin
# T3 sequence (P37238 238-505 limits assumed): T1 sequence (P37231 238-505 limits assumed) with S93N, V98I, S146N, L226V, Q245H
# Method: as §1
# [5] = Photostability protocol (UV exposure, ICH Q1B, SUNTEST, HPLC); format: physicochemical; details: after 17 h exposure to UV light; for Elafibranor degradation (%): HPLC-UV at 350 nm
# Method: In order to make the difference between the degradation only due to temperature within the SUNTEST apparatus chamber and the degradation only due to UV exposure, a second elafibranor salt sample protected from light is also placed in the SUNTEST chamber. All samples are then analyzed by HPLC.
# The crystallized samples were stressed by exposure to UV light according to the photostatbility protocol described above.
# [6] = molecular target: T4, PPARalpha (Mus musculus, UniProt P23204); assay: Gal4-PPAR transactivation assay in COS-7 cells, murine PPARalpha; format: cell-based; details: Murin
# T4 sequence (P23204 200-468 limits assumed): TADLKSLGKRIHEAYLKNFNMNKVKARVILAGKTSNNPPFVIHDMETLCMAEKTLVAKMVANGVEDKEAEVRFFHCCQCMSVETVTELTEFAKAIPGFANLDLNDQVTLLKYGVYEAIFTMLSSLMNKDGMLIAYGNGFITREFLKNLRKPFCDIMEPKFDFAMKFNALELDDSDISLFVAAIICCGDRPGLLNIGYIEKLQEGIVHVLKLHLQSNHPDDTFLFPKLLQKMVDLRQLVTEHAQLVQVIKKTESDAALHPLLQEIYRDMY
# Method: as §1
# [7] = listed as Elafibranor L-Arginine salt
Compound,EC50 [1] [nM],Final pH of the saturated solution ([2]; pH 1 HCl/KCl buffer),Final pH of the saturated solution ([2]; pH 3 citrate buffer),Final pH of the saturated solution ([2]; pH 5 citrate/phosphate buffer),Final pH of the saturated solution ([2]; pH 7.4 phosphate buffer),EC50 [3] [nM],EC50 [4] [nM],EC50 [6] [nM],Photostability compared to elafibranor free acid [5],Elafibranor degradation (%) [5] [%],other results
"CSc1ccc(C(=O)/C=C/c2cc(C)c(OC(C)(C)C(=O)O)c(C)c2)cc1 [Elafibranor, reference compound]",430,0.7,2.9,4.9,7.3,57,580,95,–,–,"solubility at 24 h ([2]; pH 1, simulated gastric fluid): < 1 µg/mL; solubility at 24 h ([2]; pH 3, aqueous buffer): < 1 µg/mL; solubility at 24 h ([2]; pH 5, aqueous buffer): 1 µg/mL; solubility at 24 h ([2]; pH 7.4, aqueous buffer): 130 µg/mL; Elafibranor degradation (%) ([5]; listed as Free acid): 27%; Elafibranor degradation (%) ([5]; listed as elafibranor free acid): 27%"
"CSc1ccc(C(=O)/C=C/c2cc(C)c(OC(C)(C)C(=O)O)c(C)c2)cc1.NC(CO)(CO)CO [Form I, Elafibranor tromethamine salt]",490,0.9,3.1,5.1,7.3,68,730,103,significant improvement of the photostability,10,Soluble fraction (mg/mL) at 20° C. at 24 hours ([2]; pH 1 HCl/KCl buffer): <0.001 mg/mL; Soluble fraction (mg/mL) at 20° C. at 24 hours ([2]; pH 3 citrate buffer): <0.001 mg/mL; Soluble fraction (mg/mL) at 20° C. at 24 hours ([2]; pH 5 citrate/phosphate buffer): 0.003 mg/mL; Solubility compared to elafibranor ([2]; pH 7.4): more soluble than elafibranor; Soluble fraction (mg/mL) at 20° C. at 24 hours ([2]; pH 7.4 phosphate buffer): 0.19 mg/mL
"CSc1ccc(C(=O)/C=C/c2cc(C)c(OC(C)(C)C(=O)O)c(C)c2)cc1 [Form II, Elafibranor potassium salt]",430,–,–,–,–,64,590,96,significant improvement of the photostability,–,"Elafibranor degradation (%) ([5]; listed as Potassium salt (Form II), potassium salt): 13%; Elafibranor degradation (%) ([5]; potassium salt): 13%"
"CSc1ccc(C(=O)/C=C/c2cc(C)c(OC(C)(C)C(=O)O)c(C)c2)cc1 [Form III, Elafibranor sodium salt]",560,–,–,–,–,77,770,133,–,–,Elafibranor degradation (%) ([5]; sodium salt): 89%
"CSc1ccc(C(=O)/C=C/c2cc(C)c(OC(C)(C)C(=O)O)c(C)c2)cc1.N=C(N)NCCC[C@H](N)C(=O)O [Form IV, Elafibranor L-arginate salt]",–,–,–,–,–,–,–,–,significant improvement of the photostability,4,"EC50 [1, 7]: 320 nM; EC50 [3, 7]: 54 nM; EC50 [4, 7]: 580 nM; EC50 [6, 7]: 93 nM"
